# Test results: patent US20110015067A1, “Herbicidal Compositions Comprising Pyroxasulfone” (BASF SE, priority 2008, published 2011)
# Like-named read-outs stand apart in the source and are kept apart here.
# Key:
# [1] = system: ECHCG (Echinochloa crus-galli); experiment: pre-emergence greenhouse test; assay type: in vivo; settings: for inhibition at 25 g/ha: Echinochloa crus-galli, use rate 25 g ai/ha, read-out: observed % activity; for inhibition at 25 g/ha / observed activity in % destruction: pre-emergence
# Procedure, shortened: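 Visual damage ratings, 0% meaning no effect and 100% complete plant destruction relative to untreated controls, were taken 8 and/or 20 days after a pre-emergence spray. Actives were applied in water directly after sowing, solo or as mixtures.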
# [2] = system: PANDI (Panicum dichotomiflorum); experiment: pre-emergence greenhouse test; assay type: in vivo; settings: for observed activity in % destruction: pre-emergence
# Procedure, shortened: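 Compounds suspended or emulsified in water were sprayed through fine nozzles directly after sowing, then pots were gently irrigated and kept under transparent hoods until rooting. Herbicidal effect of solo compounds and mixtures was rated 8 and/or 20 days after treatment on a 0–100% damage scale versus untreated controls.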
# [3] = ECHCG pre-emergence 12.5 g ai/ha
# [4] = PANDI pre-emergence 6.25 g ai/ha
smiles,measurement,setting,value
"Cn1nc(C(F)(F)F)c(CS(=O)(=O)C2=NOC(C)(C)C2)c1OC(F)F [pyroxasulfone, 3-[5-(difluoromethoxy)-1-methyl-3-(trifluoromethyl)pyrazol-4-ylmethylsulfonyl]-4,5-dihydro-5,5-dimethyl-1,2-oxazole]",observed % destruction 8 DAT,[1]; [3],70%
same,observed % destruction 20 DAT,[1]; [3],98%
same,observed % destruction 8 DAT,[1]; ECHCG pre-emergence 25 g ai/ha,75%
same,observed % destruction 20 DAT,[1]; ECHCG pre-emergence 25 g ai/ha,98%
same,observed % destruction 8 DAT,[1]; ECHCG pre-emergence 50 g ai/ha,90%
same,observed % destruction 20 DAT,[1]; ECHCG pre-emergence 50 g ai/ha,100%
same,inhibition at 25 g/ha,"[1]; 192 h, 8 DAT",75%
same,inhibition at 25 g/ha,"[1]; 480 h, 20 DAT",98%
same,observed activity in % destruction,"[1]; 12.5 g ai/ha, 8 DAT",70%
same,observed activity in % destruction,"[1]; 12.5 g ai/ha, 20 DAT",98%
same,observed activity in % destruction,"[1]; 25 g ai/ha, 8 DAT",75%
same,observed activity in % destruction,"[1]; 25 g ai/ha, 20 DAT",98%
same,observed activity in % destruction,"[1]; 50 g ai/ha, 8 DAT",90%
same,observed activity in % destruction,"[1]; 50 g ai/ha, 20 DAT",100%
same,observed % destruction 8 DAT,[2]; [4],65%
same,observed % destruction 20 DAT,[2]; [4],90%
same,observed % destruction 8 DAT,[2]; PANDI pre-emergence 25 g ai/ha,90%
same,observed % destruction 20 DAT,[2]; PANDI pre-emergence 25 g ai/ha,100%
same,observed % destruction 8 DAT,[2]; PANDI pre-emergence 50 g ai/ha,90%
same,observed % destruction 20 DAT,[2]; PANDI pre-emergence 50 g ai/ha,100%
same,observed activity in % destruction,"[2]; 6.25 g ai/ha, 8 DAT",65%
same,observed activity in % destruction,"[2]; 6.25 g ai/ha, 20 DAT",90%
same,observed activity in % destruction,"[2]; 12.5 g ai/ha, 8 DAT",80%
same,observed activity in % destruction,"[2]; 12.5 g ai/ha, 20 DAT",100%
same,observed activity in % destruction,"[2]; 50 g ai/ha, 8 DAT",90%
same,observed activity in % destruction,"[2]; 50 g ai/ha, 20 DAT",100%
